Among the data in patent US10214492B2, “Heterocyclic inhibitors of MCT4” (Vettore, LLC, priority 2016, dated 2019) are IC50 values, retold here.

In one experiment the target is MCT1 (Homo sapiens (Human), UniProt P53985). The experiment in a line: Assay 4: MCT1-mediated lactate transport in BT20 breast cancer cells. The class given is cell-based. The following applies: Table 27. As to the method:
(§1) 10 μL of a 30 mM DMSO stock of BCECF-AM ester (Life Technologies) is added and the cells are incubated at 37° C. for 5 min. The cells are pelleted (300 g, 5 min), washed once with 1 mL Tyrode's Solution, pH 7.4, re-pelleted (300 g, 5 min), and resuspended in 1 mL Tyrode's Solution, pH 7.4.
Assay 4: MCT1-Mediated Lactate Transport in BT20 Breast Cancer Cells.
Preparation of BCECF loaded cells are as described for Assay 1. Lactate transport assay is as described for Assay 1, except 10 mM L-lactate (rather than 50 mM) is added.

Another experiment concerns the target MCT4 (Homo sapiens (Human), UniProt O15427). Nature of the experiment: Assay 3: MCT4-mediated lactate transport in MDA-MB-231 breast cancer cells. The settings on record: MDA-MB-231 cells; lactate transport. The class given is cell-based. As for the experimental part: as §1
MCT4 activity may be assessed by monitoring the intracellular pH change that accompanies lactate/proton symport, using the pH-sensitive fluorescent dye 2′,7′-bis-(carboxyethyl)-5(6)-carboxyfluorescein (BCECF), in a manner similar to that previously reported for MCT1 and MCT4. The following is an exemplary procedure for assaying MCT4 activity of the compounds of Formula (I).

A word on the IC50: it is the midpoint of a concentration-inhibition curve. A high value points to weaker potency.

Chain of MCT1 (P53985 whole entry): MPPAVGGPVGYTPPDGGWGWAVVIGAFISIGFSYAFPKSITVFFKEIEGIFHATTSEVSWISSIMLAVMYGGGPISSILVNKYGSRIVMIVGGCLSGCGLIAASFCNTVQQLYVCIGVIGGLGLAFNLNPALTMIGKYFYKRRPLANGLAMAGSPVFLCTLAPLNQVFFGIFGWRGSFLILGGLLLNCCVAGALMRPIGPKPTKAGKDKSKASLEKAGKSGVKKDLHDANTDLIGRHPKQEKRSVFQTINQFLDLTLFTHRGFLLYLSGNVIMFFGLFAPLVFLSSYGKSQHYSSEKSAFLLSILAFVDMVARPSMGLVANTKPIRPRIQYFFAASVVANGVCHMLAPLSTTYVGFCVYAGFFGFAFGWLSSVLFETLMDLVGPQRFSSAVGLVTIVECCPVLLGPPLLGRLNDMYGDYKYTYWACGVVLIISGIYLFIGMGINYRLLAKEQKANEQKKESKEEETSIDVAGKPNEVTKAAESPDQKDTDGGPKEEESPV
Chain of MCT1 (P35613 140-385 partner): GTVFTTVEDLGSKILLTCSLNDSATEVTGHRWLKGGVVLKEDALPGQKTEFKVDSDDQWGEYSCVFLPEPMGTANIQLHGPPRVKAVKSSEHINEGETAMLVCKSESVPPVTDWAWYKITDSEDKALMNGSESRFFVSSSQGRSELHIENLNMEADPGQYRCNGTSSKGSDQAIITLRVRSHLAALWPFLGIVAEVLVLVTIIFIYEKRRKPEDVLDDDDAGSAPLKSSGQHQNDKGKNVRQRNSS
Chain of MCT4 (O15427 whole entry, looked up): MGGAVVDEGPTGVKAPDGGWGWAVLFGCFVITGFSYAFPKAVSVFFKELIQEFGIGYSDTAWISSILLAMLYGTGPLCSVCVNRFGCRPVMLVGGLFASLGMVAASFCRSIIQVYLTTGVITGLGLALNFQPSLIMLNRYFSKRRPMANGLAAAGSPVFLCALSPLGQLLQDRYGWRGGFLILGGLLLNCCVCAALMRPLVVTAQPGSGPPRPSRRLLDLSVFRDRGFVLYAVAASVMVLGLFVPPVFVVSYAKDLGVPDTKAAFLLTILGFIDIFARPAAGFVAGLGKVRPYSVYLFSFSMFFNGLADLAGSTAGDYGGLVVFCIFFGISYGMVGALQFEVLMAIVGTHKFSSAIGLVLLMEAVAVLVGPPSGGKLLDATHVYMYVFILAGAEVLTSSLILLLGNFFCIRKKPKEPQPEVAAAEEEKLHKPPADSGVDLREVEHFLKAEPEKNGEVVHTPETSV
Chain of MCT4 (P35613 whole entry partner, looked up): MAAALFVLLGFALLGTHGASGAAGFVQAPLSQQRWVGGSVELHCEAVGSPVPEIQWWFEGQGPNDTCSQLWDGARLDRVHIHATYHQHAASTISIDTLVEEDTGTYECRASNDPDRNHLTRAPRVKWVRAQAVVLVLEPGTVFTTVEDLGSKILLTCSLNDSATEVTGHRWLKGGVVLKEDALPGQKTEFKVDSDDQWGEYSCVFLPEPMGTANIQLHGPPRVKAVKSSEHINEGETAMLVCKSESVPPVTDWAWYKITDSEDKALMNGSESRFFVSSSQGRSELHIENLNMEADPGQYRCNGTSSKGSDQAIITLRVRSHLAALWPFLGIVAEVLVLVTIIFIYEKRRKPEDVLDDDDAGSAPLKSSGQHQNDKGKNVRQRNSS

For the compound “2-((1-[(2-Chlorophenyl)methyl]-5-(4-cyclopropoxythien-2-yl)-1H-pyrazol-3-yl(methoxy)-2-methylpropanoic acid [Example 130]”, the values for the half-maximal inhibitory concentration (IC50) against MCT1 and against MCT4 were 55 nM and 98 nM, respectively.
On to `CC(C)COc1cccc(-c2cc(COC(C)(C)C(=O)O)nn2-c2ccccc2Cl)c1` [Example 101, 2-([1-(2-Chlorophenyl)-5-[3-(2-methyl-propoxy)phenyl]-1H-pyrazol-3-yl)methoxy)-2-methylpropanoic acid], for which the half-maximal inhibitory concentration (IC50) on MCT1 amounted to 12000 nM; at MCT4 it was 3.4 nM.
Regarding `COc1ccccc1-n1nc(COC(C)(C)C(=O)O)cc1-c1cccc(OCC(C)C)c1` [Example 102, 2-([1-(2-Methoxyphenyl)-5-[3-(2-methylpropoxy)phenyl]-1H-pyrazol-3-yl]methoxy)-2-methylpropanoic acid], the figures for the IC50 against MCT1 and on MCT4 were 42000 nM and 15 nM, respectively.
For `CC(C)COc1cccc(-c2cc(COC(C)(C)C(=O)O)nn2-c2ccccc2N(C)C)c1` [Example 103, 2-([1-[2-(Dimethylamino)phenyl]-5-[3-(2-methylpropoxy)phenyl]-1H-pyrazol-3-yl]methoxy)-2-methylpropanoic acid] the same measures were 28000 nM and 2.6 nM.
The corresponding values for `CC(C)COc1cccc(-c2cc(COC(C)(C)C(=O)O)nn2-c2ccccc2)c1` [Example 104, 2-methyl-2-([5-[3-(2-methylpropoxy)phenyl]-1-phenyl-1H-pyrazol-3-yl]methoxy)propanoic acid] are 12000 nM and 20 nM.
As to `Cc1ccccc1-n1nc(COC(C)(C)C(=O)O)cc1-c1cccc(OCC(C)C)c1` [Example 105, 2-Methyl-2-([1-(2-methylphenyl)-5-[3-(2-methylpropoxy)phenyl]-1H-pyrazol-3-yl]methoxy]propanoic acid], the IC50 against MCT1 came out at 15000 nM; against MCT4 it was 7.6 nM.
As for `CC(C)COc1cccc(-c2cc(COC(C)(C)C(=O)O)nn2-c2ccccc2F)c1` [Example 106, 2-([1-(2-fluorophenyl)-5-[3-(2-methyl-propoxy)phenyl]-1H-pyrazol-3-yl)methoxy)-2-methylpropanoic acid], the figures for the IC50 against MCT1 and on MCT4 were 21000 nM and 12 nM, respectively.
Turning to `CC(C)COc1cccc(-c2cc(COC(C)(C)C(=O)O)nn2Cc2ccc(N(C)C)cc2)c1` [Example 107, 2-[(1-[[4-(Dimethylamino)phenyl]methyl]-5-[3-(2-methylpropoxy)phenyl]-1H-pyrazol-3-yl)methoxy)-2-methylpropanoic acid], the figures for the IC50 against MCT1 and against MCT4 were 9900 nM and 170 nM, respectively.
In the case of `CC(C)COc1cccc(-c2cc(COC(C)(C)C(=O)O)nn2Cc2cccc(N(C)C)c2)c1` [Example 108, 2-[(1-[[3-(Dimethylamino)phenyl]-methyl]-5-[3-(2-methylpropoxy)phenyl]-1H-pyrazol-3-yl)methoxy)-2-methylpropanoic acid], the IC50 on MCT1 was 5200 nM; against MCT4 it was 36 nM.
In the case of `CC(C)COc1cccc(-c2cc(COC(C)(C)C(=O)O)nn2Cc2ccccc2N(C)C)c1` [Example 109, 2-[(1-[[2-(Dimethylamino)phenyl]-methyl]-5-[3-(2-methylpropoxy)phenyl]-1H-pyrazol-3-yl)methoxy)-2-methylpropanoic acid], the results for the IC50 against MCT1 and on MCT4 were above 11000 nM and 2.1 nM, respectively.
The corresponding values for `COc1ccccc1Cn1nc(COC(C)(C)C(=O)O)cc1-c1cccc(OC2CC2)c1` [Example 111, 2-([5-(3-Cyclopropoxyphenyl)-1-[(2-methoxyphenyl)methyl]-1H-pyrazol-3-yl)methoxy)-2-methylpropanoic acid] are 32000 nM and 7.9 nM.
Consider `COc1ccccc1-n1nc(COC(C)(C)C(=O)O)cc1-c1cccc(OC2CC2)c1` [Example 112, 2-([5-(3-cyclopropoxyphenyl)-1-(2-methoxyphenyl)-1H-pyrazol-3-yl]methoxy)-2-methylpropanoic acid], for which the concentration for half-maximal inhibition (IC50) was determined as 94000 nM at MCT1 and 29 nM on MCT4.
In the case of `COc1ccccc1-n1nc(COC(C)(C)C(=O)O)cc1-c1cccc(OC(C)C)c1` [Example 113, 2-([1-(2-Methoxyphenyl)-5-[3-(propan-2-yloxy)phenyl]-1H-pyrazol-3-yl]methoxy)-2-methylpropanoic acid], the IC50 against MCT1 is 33000 nM; at MCT4 it was 6.7 nM.
For `CN(C)c1ccccc1-n1nc(COC(C)(C)C(=O)O)cc1-c1cccc(OC2CC2)c1` [Example 114, 2-([5-(3-cyclopropoxyphenyl)-1-[2-(dimethylamino)phenyl]-1H-pyrazol-3-yl]methoxy)-2-methylpropanoic acid], the values for the concentration for half-maximal inhibition (IC50) on MCT1 and on MCT4 were 73000 nM and 4.3 nM, respectively.
`COc1cccc(-c2cc(COC(C)(C)C(=O)O)nn2-c2cccnc2)c1` [Example 115, 2-([5-(3-Methoxyphenyl)-1-(pyridin-3-yl)-1H-pyrazol-3-yl]methoxy)-2-methylpropanoic acid] showed an IC50 on MCT1 above 100000 nM.
At MCT1, `COc1cccc(-c2cc(COC(C)(C)C(=O)O)nn2-c2ccccc2F)c1` [Example 117, 2-([1-(2-Fluorophenyl)-5-(3-methoxyphenyl)-1H-pyrazol-3-yl]methoxy)-2-methylpropanoic acid] came in with a concentration for half-maximal inhibition (IC50) above 100000 nM.
On the same count and under the same terms, with `COc1cccc(-c2cc(COC(C)(C)C(=O)O)nn2-c2ccccc2C)c1` [Example 118, 2-([5-(3-methoxyphenyl)-1-(2-methylphenyl)-1H-pyrazol-3-yl]methoxy)-2-methylpropanoic acid] the figure was 50000 nM; with `COc1cccc(-c2cc(COC(C)(C)C(=O)O)nn2-c2ccccc2OC)c1` [Example 119, 22-([1-(2-Methoxyphenyl)-5-(3-methoxyphenyl)-1H-pyrazol-3-yl]methoxy)-2-methylpropanoic acid], 65000 nM.
As to `CC[C@H](OCc1cc(-c2cccc(OC)c2)n(Cc2ccccc2Cl)n1)C(=O)O` [Example 122, (2S)-2-([1-[(2-Chlorophenyl)methyl]-5-(3-methoxyphenyl)-1H-pyrazol-3-yl]methoxy)-butanoic acid], the IC50 was 2500 nM at MCT1 and 50 nM at MCT4.
As to `CC[C@@H](OCc1cc(-c2cccc(OC)c2)n(Cc2ccccc2Cl)n1)C(=O)O` [Example 123], the IC50 on MCT1 turned out to be 11000 nM; at MCT4, 1500 nM.
As for `COc1cccc(-c2cc(CO[C@@H](C)C(=O)O)nn2Cc2ccccc2Cl)c1` [Example 124, (2S)-2-([1-[(2-Chlorophenyl)methyl]-5-(3-methoxyphenyl)-1H-pyrazol-3-yl]methoxy)-propanoic acid], the concentration for half-maximal inhibition (IC50) at MCT1 was 31000 nM; at MCT4, 420 nM.
On MCT4, `COc1cccc(-c2cc(CO[C@H](C)C(=O)O)nn2Cc2ccccc2Cl)c1` [Example 125, (2R)-2-([1-[(2-Chlorophenyl)methyl]-5-(3-methoxyphenyl)-1H-pyrazol-3-yl]methoxy)-propanoic acid] had a 50% inhibitory concentration (IC50) of 5900 nM. This lies in the single-digit micromolar range.
For `COc1ccccc1-c1cc(COC(C)(C)C(=O)O)nn1Cc1ccccc1Cl` [Example 126], the IC50 against MCT1 turned out to be 35000 nM; against MCT4, 130 nM.
For `COc1ccc(-c2cc(COC(C)(C)C(=O)O)nn2Cc2ccccc2Cl)cc1` [Example 127, 2-([1-[(2-Chlorophenyl)methyl]-5-(4-methoxyphenyl)-1H-pyrazol-3-yl]methoxy)-2-methylpropanoic acid] the same measures were 15000 nM and 41 nM.
For `CC(C)COc1ccc(-c2cc(COC(C)(C)C(=O)O)nn2Cc2ccccc2Cl)s1` [Example 128, 2-([1-[(2-Chlorophenyl)methyl]-5-[5-(2-methylpropoxy)thien-2-yl]-1H-pyrazol-3-yl]methoxy)-2-methylpropanoic acid] the same measures were above 11000 nM and 1.2 nM.
On to `CC(C)Oc1ccc(-c2cc(COC(C)(C)C(=O)O)nn2Cc2ccccc2Cl)s1` [Example 129, 2-([1-[(2-Chlorophenyl)methyl]-5-[5-(propan-2-yloxy)thien-2-yl]-1H-pyrazol-3-yl]methoxy)-2-methylpropanoic acid], for which the 50% inhibitory concentration (IC50) at MCT1 turned out to be 16000 nM; against MCT4, 2.8 nM.
As for `COc1cccc(-c2cc(COC(C)(C)C(=O)O)nn2Cc2c(F)cccc2N(C)C)c1` [Example 136, 2-[(1-[(2-(Dimethylamino)-6-fluoro-phenyl]methyl]-5-(3-methoxyphenyl)-1H-pyrazol-3-yl)methoxy)-2-methylpropanoic acid], the IC50 against MCT1 was above 33000 nM.
On to `COc1cc(OC)cc(-c2cc(COC(C)(C)C(=O)O)nn2-c2cccc(Cl)c2)c1` [Example 241, 2-([5-(3,5-Dimethoxyphenyl)-1-(3-chlorophenyl)-1H-pyrazol-3-yl]methoxy)-2-methylpropanoic acid], for which, at MCT1, the concentration for half-maximal inhibition (IC50) is 8500 nM.
At MCT1, `COc1cc(OC)cc(-c2cc(COC(C)(C)C(=O)O)nn2-c2cccc(OC)c2)c1` [Example 242, 2-([5-(3,5-Dimethoxyphenyl)-1-(3-methoxyphenyl)-1H-pyrazol-3-yl]methoxy)-2-methylpropanoic acid] registered a half-maximal inhibitory concentration (IC50) of 57000 nM.
Compound `Cn1cnc2ccc(-c3cc(COC(C)(C)C(=O)O)nn3Cc3ccccc3Cl)cc21` [Example 248, 2-([1-[(2-Chlorophenyl)methyl]-5-(1-methyl-1H-1,3-benzodiazol-6-yl)-1H-pyrazol-3-yl]methoxy)-2-methylpropanoic acid] displayed an IC50 against MCT1 above 100000 nM.
On the same count and under the same terms, for `Cc1nn(C)c2c(-n3nc(COC(C)(C)C(=O)O)cc3-c3cccc(OCC(C)(C)C)c3)cccc12` [Example 255] the value was 7300 nM.
